In patent US20230175072A1, “3 FLAP OKAZAKI FRAGMENTS AND USES THEREOF” (City of Hope, priority 2021, published 2023):
“Also recorded” adds a separate entry of the source. Read-outs that look alike come from different tables or passages of the source.

Legend:
yeast cells [1] = experiment: MMS sensitivity spot assay; assay type: cell-based, Saccharomyces cerevisiae; details: YPD plates, 30° C., 48 h
Description: FIG. 6. pol3 ITD-bearing rad27Δ revertant mutations or pol3 ITD knock-in of rad27Δ cells partially reverses MMS-induced lethality. Viability of WT, pol3 ITD knock-in, rad27Δ, rad27Δ with the pol3 ITD knock-in mutation, and a rad27Δ revertant carrying a pol3 ITD mutation was analyzed using spot assays. Yeast cells of the indicated genetic backgrounds were serially diluted and spotted on YPD plates containing the indicated level of MMS. The plates were incubated at 30° C. for 48 hours.
To assay the MMS sensitivity of different yeast strains, 0.005%, 0.01%, 0.015% or 0.02% MMS was added to YPD plates after autoclaving, and plates were used the same day. Yeast cells were serially diluted and spotted on YPD plates containing different levels of MMS. The plates were incubated at 30° C. for 48 h.

yeast cells [2] = details: rad27Δ cells; cited from earlier work
Chk1 = molecular target: T1, Chk1 (Mus musculus, UniProt O35280); experiment: Chk1 inhibition and lung cancer development in FEN1 FFAA mutant mice; assay type: in vivo; details: 0.025 mg/kg intraperitoneal once per week for four weeks from 6 months, lung tumors assessed at 16 months, vs DMSO
T1 construct: from tissue; host or cells: live mice (129S1 background), WT and FEN1 WT/FFAA heterozygotes
T1 sequence (O35280 1-476): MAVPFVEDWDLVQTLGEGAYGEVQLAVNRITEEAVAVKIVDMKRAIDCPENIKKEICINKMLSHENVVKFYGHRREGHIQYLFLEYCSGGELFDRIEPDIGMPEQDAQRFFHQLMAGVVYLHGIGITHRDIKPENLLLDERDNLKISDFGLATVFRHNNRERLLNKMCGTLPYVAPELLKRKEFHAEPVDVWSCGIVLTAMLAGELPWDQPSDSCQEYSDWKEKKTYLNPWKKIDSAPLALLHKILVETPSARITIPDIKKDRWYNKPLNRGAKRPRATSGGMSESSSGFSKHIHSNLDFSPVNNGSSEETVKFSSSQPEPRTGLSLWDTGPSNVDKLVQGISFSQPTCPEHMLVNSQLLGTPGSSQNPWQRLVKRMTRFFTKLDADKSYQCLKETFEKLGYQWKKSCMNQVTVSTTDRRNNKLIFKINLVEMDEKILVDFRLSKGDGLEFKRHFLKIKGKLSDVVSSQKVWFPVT
Description: FEN1 F343A/F344A (FFAA) heterozygous mice (WT/FFAA, 129S1 genetic background), which develop lung adenoma or adenocarcinoma at a high frequency (32), were in-line bred and housed in the Animal Resource Center at City of Hope. All experimental protocols involving animals were approved by the Institutional Animal Care and Use Committee of City of Hope in compliance with the Public Health Service policies of the United States. To determine the extent to which inhibiting Chk1 suppressed cancer development in FEN1 FFAA mutant mice, randomly selected WT or WT/FFAA male or female mice (6 months old) were treated with 0.025 mg/kg body weight SB218078 (Chk1 inhibitor) in DMSO via intraperitoneal injection once per week for four weeks. Untreated control mice were injected with the same volume of DMSO (vehicle). All mice were euthanized at 16 months of age. The presence of lung tumors was determined using anatomic and histopathological analysis in blinding fashion. For whole exome sequencing (WES) studies, WT or FEN1 A159V/WT mice (33) were euthanized at 16 months, and normal lung or lung tumors were dissected for total genomic DNA extraction and purification.
Two-tailed student's t-test was used to determine significance in differences in mutation rate assays and the hypergeometric test was used to determine the significance in the enrichment of a signaling pathway. […]

Structure (SMILES)	MMS sensitivity of yeast cells (yeast cells [1]; pol3 ITD cells in a WT RAD27 background, high concentrations of MMS)	MMS sensitivity of yeast cells (yeast cells [1]; rad27Δ revertant cells and rad27Δ pol3 ITD knock-in mutant cells, higher concentrations (≥0.01%) MMS)	MMS sensitivity of yeast cells (yeast cells [1]; rad27Δ revertant cells and rad27Δ pol3 ITD knock-in mutant cells, low concentration (0.005%) MMS)	MMS sensitivity of yeast cells (yeast cells [2])	spontaneous lung cancer development (Chk1; WT mice)	spontaneous lung cancer development (Chk1; WT/FFAA (FEN1 F343A/F344A heterozygous) mice, 0.025 mg/kg)
COS(C)(=O)=O [MMS, methyl methanesulfonate]	sensitive	sensitive	resistant	sensitive	–	–
O=C1NC(=O)c2c1c1c3ccccc3n3c1c1c2c2ccccc2n1C1CCC3O1 [SB218078]	–	–	–	–	not in WT mice	significantly inhibited spontaneous lung cancer development; also recorded: blocks lung cancer development
